Data reported in US10865384B2, “2,4,5-tri-substituted azole-based casein kinase 1 inhibitors as inducers for cardiomyogenesis” (AGENCY FOR SCIENCE, TECHNOLOGY AND RESEARCH, priority 2014, dated 2020).
“Also recorded” adds a separate entry of the source. Where two headings read alike, the source gives them in different places.

What was measured:
[1] = target: T1, p38α MAPK (Homo sapiens (Human), UniProt Q16539); experiment: HitHunter p38 MAP kinase binding assay; settings: read-out: p38α MAPK IC50 ± SEM
T1 sequence (Q16539 whole entry, looked up): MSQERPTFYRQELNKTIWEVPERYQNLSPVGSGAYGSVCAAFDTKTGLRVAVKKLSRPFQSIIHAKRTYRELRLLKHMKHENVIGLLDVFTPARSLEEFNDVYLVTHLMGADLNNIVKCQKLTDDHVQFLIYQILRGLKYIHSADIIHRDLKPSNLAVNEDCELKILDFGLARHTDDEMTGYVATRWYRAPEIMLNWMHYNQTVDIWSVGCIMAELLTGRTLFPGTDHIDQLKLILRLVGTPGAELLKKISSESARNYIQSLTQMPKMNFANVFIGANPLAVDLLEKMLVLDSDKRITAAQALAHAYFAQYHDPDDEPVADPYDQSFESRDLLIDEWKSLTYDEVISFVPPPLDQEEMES

[2] = target: CK1δ (Homo sapiens (Human), UniProt P48730); experiment: LanthaScreen Eu kinase binding assay, CK1δ
Sequence of CK1δ (P48730 whole entry): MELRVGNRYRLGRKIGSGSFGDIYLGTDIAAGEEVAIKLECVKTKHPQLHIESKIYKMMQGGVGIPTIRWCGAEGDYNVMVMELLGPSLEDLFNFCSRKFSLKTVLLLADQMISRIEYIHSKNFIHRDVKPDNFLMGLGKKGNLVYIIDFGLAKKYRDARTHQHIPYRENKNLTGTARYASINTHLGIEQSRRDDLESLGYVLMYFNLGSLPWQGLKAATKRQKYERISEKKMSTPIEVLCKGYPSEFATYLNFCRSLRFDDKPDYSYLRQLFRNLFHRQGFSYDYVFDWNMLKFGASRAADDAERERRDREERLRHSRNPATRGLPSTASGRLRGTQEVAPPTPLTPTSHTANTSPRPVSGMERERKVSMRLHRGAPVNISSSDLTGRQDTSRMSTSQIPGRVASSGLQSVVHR

[3] = target: CK1ϵ (Homo sapiens (Human), UniProt P49674); experiment: LanthaScreen Eu kinase binding assay, CK1ϵ
Sequence of CK1ϵ (P49674 whole entry): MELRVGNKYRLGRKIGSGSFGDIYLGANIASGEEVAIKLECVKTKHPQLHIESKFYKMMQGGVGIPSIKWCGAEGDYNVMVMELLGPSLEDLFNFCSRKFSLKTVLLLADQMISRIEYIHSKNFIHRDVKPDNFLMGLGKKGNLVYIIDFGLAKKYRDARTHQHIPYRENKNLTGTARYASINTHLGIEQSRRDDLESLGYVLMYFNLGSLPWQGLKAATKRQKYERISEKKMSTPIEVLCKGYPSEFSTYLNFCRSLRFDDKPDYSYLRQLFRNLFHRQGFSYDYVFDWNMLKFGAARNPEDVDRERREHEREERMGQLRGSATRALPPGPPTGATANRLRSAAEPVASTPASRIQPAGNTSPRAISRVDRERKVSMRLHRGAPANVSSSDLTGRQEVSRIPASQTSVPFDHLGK

[4] = tested on: hESC3 Nkx2.5eGFP/w cells; experiment: Cardiomyocyte differentiation of embryoid bodies, Nkx2.5 GFP by flow cytometry; type: cell-based, human; settings: for Cardiogenic effect (GFP expression fold over DMSO): 5 μM
[5] = tested on: H3 hESCs Nkx2.5eGFP/w; experiment: High yield cardiomyocyte differentiation after 24 h CHIR99021 pre-treatment; type: cell-based, human
[6] = tested on: hESC3 Nkx2.5eGFP/w cells; experiment: Differentiation in 96-U bottom ultra-low attachment well plates, GFP area imaging; type: cell-based, human; settings: 5 μM; for Average GFP %: after CHIR99021, read on day 14, GFP area over embryoid body size; for Average GFP μm^2 / Average Area μm^2: day 14; for Average Area μm^2: embryoid body size
[7] = tested on: HES-3; experiment: Differentiation on microcarriers; type: cell-based, human; settings: microcarrier platform, 5 μM
Experimental: HES-3 were seeded at 2×10^5 cells/ml in the 50 ml spinner flask that contained 25 ml hESC medium and 200 mg PLL+LN-coated MC (poly-L-lysine and laminin coated microcarrier). The sample was incubated at 37° C./5% carbon dioxide for 24 hours in static conditions, after which another 25 ml hESC medium were added and the culture was then agitated at 30 rpm for 6 days. Eighty percent of the spent medium was replaced daily with fresh hESC medium. The cell concentration and cell viability were determined daily using a Nucleocounter NC-3000 (Chemometec, Davis, Calif., USA). Pluripotent markers were measured by flow cytometry on day 7. The size of the hESC/MC aggregates was measured from images taken using an Olympus IX70 microscope (Olympus, Shinjuku-ku, Tokoyo, Japan), with average dimensions determined using NIH image J software.
After 24 hours the differentiation medium was replenished, and 5 μM IWP-2 or TA-01 was added at day 3. […] On day 20 of the differentiation protocol, cells from all cultures were harvested and analyzed by fluorescence-activated cell sorting (FACS) for cardiac markers MLC2a and Tropoin T (cTnt) and MF20.
Studies with the 2,4,5-tri-substituted azole compounds were done at a fixed concentration of 5 μM at an induction day 2 and alternatively at day 3. […] On day 14 of differentiation, EBs were visually analysed for cardiomyocyte differentiation. […]

[8] = target: T1, p38α MAPK; experiment: LanthaScreen Eu kinase binding assay, p38 MAPK (IM-32 to IM-44); settings: LanthaScreen Eu binding assay (IM-32 to IM-44); read-out: p38α MAPK IC50 ± SEM
Experimental: The p38 MAPK IC50 values of selected compounds except IM-32 to IM-44 were determined using the HitHunter™ p38 MAP kinase binding assay from DiscoveRx Corporation (Fremont, Calif., USA). The p38 MAPK IC50 values of IM-32 to IM-44 and the CK1 IC50 values of selected compounds were determined using LanthaScreen™ Eu kinase binding assay from Invitrogen (Life Technologies, Carlsbad, Calif., USA). The assays were performed following the manufacturers' protocols in white 384-well plates (Cat. No. 3572; Corning Incorporated, Corning, N.Y., USA). SB203580 was used as the control in all assays. For the HitHunter™ p38 MAP kinase binding assay the compounds were dissolved in DMSO (5 mM stocks) and diluted to a final concentration of 2% (vol/vol) DMSO for all assays. Recombinant GST-tagged active p38α MAP kinase enzyme (Millipore, Billerica, Mass., USA) was used for the HitHunter™ p38 MAP kinase binding assay. For the LanthaScreen™ Eu kinase binding assay the compounds were dissolved in DMSO (5 mM stocks) and diluted to a final concentration of 1% (vol/vol) DMSO for all assays. Each data point was done in triplicate. The assay was run using JANUS Automated Workstation according to the protocol developed using WinPREP software (Perkin Elmer Inc., Waltham, Mass., USA). Tecan Infinite® M1000 microplate reader (Tecan Group Ltd., Minnedorf, Switzerland) was used for luminescence measurements (HitHunter™ p38 MAP kinase binding assay) and fluorescence measurements (LanthaScreen™ Eu kinase binding assay; ex=340 nm, em=665, 615 nm). All data analysis was performed using GraphPad Prism 5 software (GraphPad Software Inc.). Inhibition curves and IC50 values were generated by nonlinear regression analysis and data represent mean±SEM.
The in vitro IC50 values of the synthesized compounds against the relevant kinase targets are summarized. The IC50 values were determined using either the HitHunter™ p38 MAPK binding assay from DiscoveRx or the LanthaScreen™ Eu kinase binding assay (for p38alpha MAPK, CK1delta, and CK1epsilon) from Invitrogen.

[9] = tested on: p38α MAPK; settings: read-out: IC50 (published by companies), p38α MAPK inhibition; cited from earlier work
[10] = tested on: porcupine/Wnt; settings: read-out: IC50 (published by companies), porcupine/Wnt inhibition; cited from earlier work
[11] = tested on: p38 MAPK; settings: read-out: IC50 (published by companies), p38 MAPK inhibition; cited from earlier work
[12] = tested on: TNF-a; settings: read-out: IC50 (published by companies), TNF-a inhibition; cited from earlier work
[13] = CHIR99021 only, CHIR99021 with SB203580 (days 1-8), CHIR99021 with IM-31 (days 4-8)

Fc1ccc(-c2nc(-c3c(F)cccc3F)[nH]c2-c2ccncc2)cc1 [IM-31, 4-(2-(2,6-difluorophenyl)-4(5)-(4-fluorophenyl)-1H-imidazol-5(4)-yl)pyridine]
IC50 [1]: 6.7 ± 1.5 nM
IC50 ([2]; Table 3, read-out: IC50 CK1δ): 6.8 nM
IC50 ([2]; read-out: CK1δ IC50 ± SEM): 6.8 ± 0.9 nM
IC50 ([3]; Table 3, read-out: IC50 Ck1ε): 6.4 nM
IC50 ([3]; read-out: CK1ϵ IC50 ± SEM): 6.4 ± 0.4 nM
Cardiogenic effect (Nkx2.5 expression) ([4]; 1 μM): same cardiogenic effect as 5 μM of SB203580
Cardiogenic effect (GFP expression fold over DMSO) ([4]; days 1-8 of differentiation): complete inhibition of cardiomyocyte development; also recorded: failed to induced cardiomyogenesis
Cardiogenic effect (GFP expression fold over DMSO) ([4]; days 4-8 of differentiation): good inducers
Cardiomyocytes generated ([4]; applied as the sole inhibitor): 10-20%
Total cell count, fold increase (cell expansion) ([5]; 3 μM CHIR99021 24 h then 5 μM days 4-8, day 11): 2 fold
Average beating frequency [5, 13]: 25-30 beats per minute
Beat count (percentage of EBs contracting within 10 s) [5, 13]: over 75%
Beating area [5, 13]: > 5 mm^2
Cardiomyocyte development ([5]; CHIR99021 then 5 μM days 1-8): inhibition of cardiomyocytes development
Cardiomyocyte yield, cardiomyocytes per hESC seeded ([5]; CHIR99021 then 5 μM days 4-8, day 11): ~1.2 cardiomyocytes per hESC seeded
Cardiomyocyte yield compared to other Wnt inhibitor compounds such as IWP-2 ([5]; combination with CHIR99021): twofold increase in cardiomyocyte yield
Cardiogenic properties ([6]; at specific time course (induction day 2 or 3)): higher cardiogenic properties as SB203580 and IWP-2
Average GFP % ([6]; Induction Day 2): 1.5%
Average GFP μm^2 ([6]; Induction Day 2): 19.1 μm^2
Average Area μm^2 ([6]; Induction Day 2): 814.7 μm^2
Average GFP % ([6]; Induction Day 3): 31.1%
Average GFP μm^2 ([6]; Induction Day 3): 476.6 μm^2
Average Area μm^2 ([6]; Induction Day 3): 1529.1 μm^2
Amounts of cardiomyocytes (cell numbers) compared to IWP-2 [7]: same amounts of cardiomyocytes

Cc1cccc(-c2nc(-c3ccc(C(N)=O)cc3)[nH]c2-c2ccncc2)c1 [IM-39, 4-(5(4)-(pyridin-4-yl)-4(5)-(m-tolyl)-1H-imidazol-2-yl)benzamide]
IC50 ([2]; Table 3, read-out: IC50 CK1δ): 787 nM
IC50 ([2]; read-out: CK1δ IC50 ± SEM): 787 ± 98 nM
IC50 ([3]; Table 3, read-out: IC50 Ck1ε): 300 nM
IC50 ([3]; read-out: CK1ϵ IC50 ± SEM): 300 ± 16 nM
IC50 [8]: 2.7 ± 0.3 nM

Cc1cccc(-c2nc[nH]c2-c2ccncc2)c1 [IM-44, 4-(4(5)-(m-tolyl)-1H-imidazol-5(4)-yl)pyridine]
inhibition at 1 µM [2]: 4%
inhibition at 1 µM [3]: 42%
IC50 [8]: 45 ± 8 nM

Cc1cccc(-c2nc(CN(C)C)[nH]c2-c2ccncc2)c1 [IM-42, N,N-dimethyl-1-(5(4)-(pyridin-4-yl)-4(5)-(m-tolyl)-1H-imidazol-2-yl)methanamine]
inhibition at 1 µM [2]: 3%
inhibition at 1 µM [3]: 29%
IC50 [8]: 26 ± 3 nM

COC(=O)c1ccc(-c2nc(-c3cccc(C)c3)c(-c3ccncc3)[nH]2)cc1 [IM-40, Methyl 4-(5(4)-(pyridin-4-yl)-4(5)-(m-tolyl)-1H-imidazol-2-yl)benzoate]
inhibition at 1 µM [2]: 10%
inhibition at 1 µM [3]: 43%
IC50 [8]: 3.7 ± 0.7 nM

Cc1cccc(-c2nc(-c3ccc(C(=N)NO)cc3)[nH]c2-c2ccncc2)c1 [IM-37, (Z)—N′-hydroxy-4-(5(4)-(pyridin-4-yl)-4(5)-(m-tolyl)-1H-imidazol-2-yl)benzimidamide]
IC50 ([2]; Table 3, read-out: IC50 CK1δ): 889 nM
IC50 ([2]; read-out: CK1δ IC50 ± SEM): 889 ± 290 nM
IC50 ([3]; Table 3, read-out: IC50 Ck1ε): 295 nM
IC50 ([3]; read-out: CK1ϵ IC50 ± SEM): 295 ± 48 nM
IC50 [8]: 3.2 ± 0.3 nM

Cc1ccc2nc(NC(=O)CSc3nc4c(c(=O)n3-c3ccccc3)SCC4)sc2c1 [IWP-2, reference compound]
Cell growth ([5]; CHIR99021 then 5 μM days 4-8): strongly reduced cell growth
Cardiomyocyte functionality ([5]; combination with CHIR99021, days 4-8): reduced functionality
Average GFP % ([6]; Induction Day 2): 4.8%
Average GFP μm^2 ([6]; Induction Day 2): 19.6 μm^2
Average Area μm^2 ([6]; Induction Day 2): 362.9 μm^2
Average GFP % ([6]; Induction Day 3): 38.4%
Average GFP μm^2 ([6]; Induction Day 3): 216.9 μm^2
Average Area μm^2 ([6]; Induction Day 3): 604.5 μm^2
IC50 [10]: 27 nM

Cc1cccc(-c2nc(C(O)C3=CCCCC3)[nH]c2-c2ccncc2)c1 (racemic) [IM-43, Cyclohex-1-en-1-yl(5(4)-(pyridin-4-yl)-4(5)-(m-tolyl)-1H-imidazol-2-yl)methanol]
CK1δ inhibition at 1 μM ([2]; at 1 μM): No inhibition at 1 μM
inhibition at 1 µM [3]: 22%
IC50 [8]: 11 ± 2 nM

Cc1cccc(-c2nc(-c3ccc(N)cc3)[nH]c2-c2ccncc2)c1 [IM-34, 4-(5(4)-(pyridin-4-yl)-4(5)-(m-tolyl)-1H-imidazol-2-yl)aniline]
inhibition at 1 µM [2]: 24%
inhibition at 1 µM [3]: 28%
IC50 [8]: 2.8 ± 2 nM

Skepinone-L
IC50 [11]: 5 nM
IC50 [12]: 40 nM

Cc1cccc(-c2nc(-c3ccc(S(C)(=O)=O)cc3)[nH]c2-c2ccncc2)c1 [IM-33, 4-(2-(4-(methylsulfonyl)phenyl)-4(5)-(m-tolyl)-1H-imidazol-5(4)-yl)pyridine]
inhibition at 1 µM [2]: 23%
inhibition at 1 µM [3]: 36%
IC50 [8]: 9.5 ± 2.8 nM

Cc1cccc(-c2nc(-c3ccc(NS(C)(=O)=O)cc3)[nH]c2-c2ccncc2)c1 [IM-35, N-(4-(5(4)-(pyridin-4-yl)-4(5)-(m-tolyl)-1H-imidazol-2-yl)phenyl)methanesulfonamide]
inhibition at 1 µM [2]: 13%
inhibition at 1 µM [3]: 40%
IC50 [8]: 5 nM

Cc1cccc(-c2nc(-c3ccc([N+](=O)[O-])cc3)[nH]c2-c2ccncc2)c1 [IM-32, 4-(2-(4-nitrophenyl)-4(5)-(m-tolyl)-1H-imidazol-5(4)-yl)pyridine]
inhibition at 1 µM [2]: 31%
inhibition at 1 µM [3]: 47%
IC50 [8]: 4.4 ± 2.4 nM

Cc1cccc(-c2nc(C#CCCO)[nH]c2-c2ccncc2)c1 [IM-41, 4-(5(4)-(pyridin-4-yl)-4(5)-(m-tolyl)-1H-imidazol-2-yl)but-3-yn-1-ol]
inhibition at 1 µM [2]: 11%
inhibition at 1 µM [3]: 38%
IC50 [8]: 47 ± 5 nM

Oc1ccc(-c2nc(-c3ccc(F)cc3)c(-c3ccncc3)[nH]2)cc1 [SB202190, reference compound]
IC50 ([2]; Table 3, read-out: IC50 CK1δ): 53 nM
IC50 ([2]; read-out: CK1δ IC50 ± SEM): 53 ± 7 nM
IC50 ([3]; Table 3, read-out: IC50 Ck1ε): 83 nM
IC50 ([3]; read-out: CK1ϵ IC50 ± SEM): 83 ± 4 nM

Cc1cccc(-c2nc(-c3ccc(C#N)cc3)[nH]c2-c2ccncc2)c1 [IM-36, 4-(5(4)-(pyridin-4-yl)-4(5)-(m-tolyl)-1H-imidazol-2-yl)benzonitrile]
inhibition at 1 µM [2]: 11%
inhibition at 1 µM [3]: 36%
IC50 [8]: 5.3 ± 0.5 nM
